Several values for one entry are separate records, joined by “and”; a condition that tells them apart may be missing. Equal entries are not always repeated.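 96-well plates; 48 h exposure; 5 concentrations. Endpoints by linear interpolation between flanking doses. Not reached: highest tested concentration assigned. The concentration for 50% growth inhibition is given as GI50. TGI is the concentration that stops growth completely.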
Tests used:
Assay in all cases: NCI anticancer screen, dose series, 48 h
A549 NSCLC = system: A549 NSCLC
DU-145 prostate = system: DU-145 prostate
HCC-2998 colon = system: HCC-2998 colon
HL-60(TB) leukemia = system: HL-60(TB) leukemia
HOP-92 NSCLC = system: HOP-92 NSCLC
LOX IMVI melanoma = system: LOX IMVI melanoma
M14 melanoma = system: M14 melanoma
NCI-H226 lung = system: NCI-H226 lung
RPMI-8226 leukemia = system: RPMI-8226 leukemia
SK-OV-3 ovarian = system: SK-OV-3 ovarian

Compound	TGI (A549 NSCLC)	TGI (DU-145 prostate)	TGI (HCC-2998 colon)	TGI (HL-60(TB) leukemia)	TGI (HOP-92 NSCLC)	TGI (LOX IMVI melanoma)	TGI (M14 melanoma)	TGI (NCI-H226 lung)	TGI (RPMI-8226 leukemia)	TGI (SK-OV-3 ovarian)	GI50 (A549 NSCLC)	GI50 (DU-145 prostate)	GI50 (HCC-2998 colon)	GI50 (HL-60(TB) leukemia)	GI50 (HOP-92 NSCLC)	GI50 (LOX IMVI melanoma)	GI50 (M14 melanoma)	GI50 (NCI-H226 lung)	GI50 (RPMI-8226 leukemia)	GI50 (SK-OV-3 ovarian)
O=C1CC(C(=O)O)Cc2c(Br)ccc(O)c21 (centres undefined)	> 100 µM	> 100 µM	> 100 µM	> 100 µM	> 100 µM	> 100 µM	> 100 µM	> 100 µM	> 100 µM	> 100 µM										
O=C(/C=C\c1cc(Br)ccc1O)/C=C/c1cc(Br)ccc1O	13.5 µM	2.17 µM	2.89 µM	4.26 µM	3.69 µM	0.463 µM	3.08 µM	8.69 µM	1.4 µM	12.3 µM	2.61 µM	0.814 µM	1.51 µM	0.385 µM	1.57 µM	0.208 µM	0.651 µM	2.63 µM	0.3 µM	4.41 µM
COc1ccc(/C(=C/c2ccc3ccccc3c2)c2nn[nH]n2)cc1OC	> 100 µM	49.2 µM	82.9 µM	6.94 µM	79.8 µM	> 100 µM	> 100 µM	> 100 µM	> 100 µM	> 100 µM	3.8 µM	3.53 µM	5.2 µM	2.56 µM	4.59 µM	5.63 µM	1.9 µM	> 100 µM	4.02 µM	3.63 µM
CS(=O)(=O)O[C@H]1C(=O)N(c2cc3c4ccccc4ccc3c3ccccc23)[C@@H]1c1ccccn1	> 100 µM	> 100 µM	> 100 µM	> 100 µM	56.3 µM	> 100 µM	5.23 µM	> 100 µM	> 100 µM	> 100 µM	0.665 µM	0.416 µM	1.25 µM	0.309 µM	0.395 µM	0.588 µM	0.317 µM	5.36 µM	0.467 µM	0.627 µM
COc1ccc2nc3cc(Cl)ccc3c(NCCNCC(O)CO)c2c1 (centres undefined)	14.1 µM	11.4 µM	6.55 µM	7 µM	7.18 µM	2.35 µM	10.9 µM	12.1 µM	6.38 µM	7.95 µM	3.33 µM	1.88 µM	1.59 µM	2.83 µM	2.8 µM	0.5 µM	2.79 µM	2.18 µM	2.3 µM	2.43 µM
Cc1cc(O[C@@H]2O[C@@H](C)[C@H](O)[C@@H](O)[C@H]2O)c2c3c(c(O[C@@H]4O[C@@H](C)[C@H](O)[C@@H](O)[C@H]4O)cc2c1)C(=O)c1c(O)cccc1C3=O	> 30 µM	> 30 µM	> 30 µM	> 30 µM	> 30 µM	> 30 µM	> 30 µM	> 30 µM	> 30 µM	> 30 µM	> 30 µM	> 30 µM	> 30 µM	> 30 µM	> 30 µM	> 30 µM	> 30 µM	> 30 µM	> 30 µM	> 30 µM
O=c1c2cccc(F)c2sc2c(NCCCNCCO)nc3ccccc3c12	3.08 µM	2.48 µM	3.19 µM	3.91 µM	5.15 µM	2.38 µM	2.98 µM	3.35 µM	3.99 µM		1.13 µM	1.22 µM	1.61 µM	1.92 µM	1.42 µM	1.13 µM	1.53 µM	1.7 µM	1.76 µM	
Clc1ccc(-c2nc3c(-c4ccccc4)nc(-c4ccccc4)cn3c2-c2ccc(Cl)cc2)cc1	> 100 µM	> 100 µM	> 100 µM	> 100 µM	> 100 µM	> 100 µM	> 100 µM		> 100 µM	> 100 µM	> 100 µM	> 100 µM	> 100 µM	> 100 µM	> 100 µM	> 100 µM	> 100 µM		> 100 µM	> 100 µM
CS(=O)(=O)c1ccc2c(c1)C(=O)c1c-2n(CCCBr)c(=O)c2cc([N+](=O)[O-])ccc12	> 100 µM	> 100 µM	> 100 µM	> 100 µM	40 µM	> 100 µM	> 100 µM	> 100 µM	42.8 µM	> 100 µM	7.34 µM	6.25 µM	24.8 µM	3.37 µM	10.9 µM	5.77 µM	7.11 µM	26.5 µM	1.68 µM	7.58 µM
C[C@]12CCCN1CC1=NNC(=O)c3cc(F)cc4[nH]c2c1c34	> 100 µM	> 100 µM	91.6 µM	66.9 µM	20.7 µM	60.3 µM	59.6 µM	67.7 µM	52.3 µM	> 100 µM	22.4 µM	32.6 µM	25.1 µM	25 µM	2.71 µM	7.64 µM	18.5 µM	7.84 µM	19.1 µM	25.9 µM
NC(CP(=O)(O)O)C(=O)O (centres undefined)	> 100 µM	> 100 µM	> 100 µM	> 100 µM	> 100 µM	> 100 µM	> 100 µM	> 100 µM	> 100 µM	> 100 µM										
COc1ccc(C2CC(c3ccccc3)=NN2C(=O)c2cc(OC)c(OC)c(OC)c2)cc1O (centres undefined)	> 100 µM		4.08 µM	1.05 µM	33.2 µM	15.6 µM	3.99 µM	21.3 µM	5.47 µM	16.6 µM	0.545 µM	0.479 µM	0.724 µM	0.244 µM	1.72 µM	0.611 µM	0.299 µM	1.29 µM	0.259 µM	0.414 µM
COC(=O)CC1C2(C)C3=C(C)C(c4ccoc4)CC3OC2C2OC(=O)C3(C)C=CC(=O)C1(C)C23 (centres undefined)	11.4 µM	2.06 µM	2.7 µM	2.76 µM	5.52 µM	2.3 µM	3.25 µM	7.68 µM	1.16 µM	14.9 µM										
CC(C)(C)[Si](C)(C)OC1[C@@H](O[Si](C)(C)C(C)(C)C)[C@@H](CNC(=O)NC(=O)NC(=O)CCl)O[C@H]1n1cnc2c(NC(=O)Nc3ccccc3)ncnc21 (some centres undefined)	8.92 µM	16.4 µM	18.6 µM	3.22 µM	1.98 µM	0.52 µM	11.8 µM	15.9 µM	5.95 µM	17.5 µM	2.26 µM	7.88 µM	8.74 µM	1.45 µM	0.842 µM	0.236 µM	5.34 µM	8.67 µM	1.56 µM	9.51 µM
C[C@@H]1CC[C@H]2[C@@H](C)C(OC/C=C/COC3O[C@@H]4O[C@@]5(C)CC[C@H]6[C@H](C)CC[C@@H]([C@H]3C)[C@@]46OO5)O[C@@H]3O[C@@]4(C)CC[C@@H]1[C@]32OO4 (some centres undefined)	> 68.3 µM	> 100 µM	12.1 µM		45.4 µM	11.4 µM	19.1 µM	0.832 µM	5.77 µM	> 100 µM	< 0.0161 µM	30.5 µM	0.0376 µM	< 0.01 µM	< 0.0179 µM	< 0.01 µM	0.0265 µM	< 0.0206 µM	< 0.01 µM	19.5 µM
Nc1c(C(=O)c2ccc(C#CCN3CCOCC3)cc2)cnn1-c1ccc(F)cc1	> 25 µM	> 25 µM	> 25 µM	> 25 µM	> 25 µM	> 25 µM	> 25 µM	> 25 µM	> 25 µM	> 25 µM	> 25 µM	> 25 µM	> 25 µM	> 25 µM	> 25 µM	> 25 µM	> 25 µM	> 25 µM	> 25 µM	> 25 µM
CCOC(=O)C1=C(C)NC(C)=C(C(=O)OCCNC(=O)c2ccc(N=[N+]=[N-])cc2)C1c1ccccc1C(F)(F)F (centres undefined)	21.5 µM	21.5 µM	21.5 µM	14.7 µM	18.9 µM	> 31.6 µM	21.5 µM	21.5 µM	18.9 µM	21.5 µM										
CC1NC(C(=O)O)Cc2cc(O)c(O)cc21 (centres undefined)	> 100 µM	> 100 µM	> 100 µM	> 100 µM	> 100 µM	> 100 µM	> 100 µM	> 100 µM	> 100 µM	> 100 µM										
CCCCOC(=O)/C=C\C(=O)NC(N)=O	> 100 µM	> 100 µM	35.4 µM	49.9 µM	24.4 µM	32.4 µM	36.6 µM	49.2 µM	28.9 µM	> 100 µM	34.3 µM	10.1 µM	19.8 µM	22.8 µM	10.9 µM	17.4 µM	17.2 µM	20 µM	7.88 µM	44.9 µM
COc1cc(-c2cc(-c3cccs3)c(C#N)c(N3CCOCC3)n2)cc(OC)c1OC	> 100 µM	> 100 µM	> 100 µM	29.7 µM	> 100 µM	> 100 µM		> 100 µM	> 85.7 µM	> 100 µM	44.1 µM	13.7 µM	21.7 µM	3.12 µM	4.73 µM	12 µM		20.5 µM	4.07 µM	> 50.3 µM
CC(C)n1nc(C#Cc2cccc(O)c2)c2c(N)ncnc21	18.3 µM and 14.6 µM	14.5 µM and 11.1 µM	27.4 µM and 21.5 µM	10.8 µM and 20.2 µM	2.35 µM and 0.774 µM	2.64 µM and 1.19 µM	4.68 µM and 2.42 µM	21.1 µM and 6.02 µM	5.78 µM and 6.19 µM	3.67 µM	2.62 µM and 3.17 µM	1.67 µM and 1.51 µM	2.4 µM and 4.46 µM	0.832 µM and 0.217 µM	0.489 µM and 0.187 µM	0.685 µM and 0.316 µM	0.693 µM and 0.397 µM	3.81 µM and 1.37 µM	1.13 µM and 0.516 µM	0.978 µM and 1.01 µM
COc1ccc(N=N/C(=N\NC(=O)c2cc(Br)ccc2O)c2ccc(N(CCC#N)CCC#N)cc2OC)cc1	> 150 µg/mL	> 150 µg/mL	66.5 µg/mL	> 150 µg/mL	> 150 µg/mL	> 150 µg/mL	> 150 µg/mL	88.1 µg/mL	> 150 µg/mL	> 150 µg/mL	77.1 µg/mL	82 µg/mL	28.7 µg/mL	56.7 µg/mL	81.9 µg/mL	53.2 µg/mL	83.7 µg/mL	24.2 µg/mL	74.4 µg/mL	80.6 µg/mL
Nc1nc(=S)c2ncn(C3OC(CO)C(O)C3O)c2[nH]1 (centres undefined)	> 33.6 µM	> 100 µM	5 µM	11 µM	7.53 µM	11.8 µM	3.13 µM	> 100 µM	2.29 µM	7.76 µM	3.69 µM	0.542 µM	0.7 µM	1.67 µM	0.33 µM	0.301 µM	0.304 µM	3.5 µM	0.322 µM	0.379 µM
COc1ccc(CN2C(=O)/C(=C\C(=O)c3ccc(OCCN4CCCC4)cc3)c3ccccc32)cc1	36.2 µM	5.65 µM	6.12 µM	6.7 µM	4.9 µM		5.34 µM	52.9 µM	6.29 µM	34 µM	13.2 µM	2.32 µM	2.6 µM	2.61 µM	2.09 µM		2.25 µM	20.8 µM	2.54 µM	18.6 µM
Cc1ccc(/C=C(/C#N)n2nnc3ncccc32)cc1	77.5 µM	13.7 µM	12.2 µM	9.92 µM	6.19 µM	11.3 µM	17.7 µM	28 µM	9.73 µM	> 100 µM	2.58 µM	3.01 µM	3.37 µM	2.99 µM	1.82 µM	3.08 µM	2.89 µM	4.46 µM	3 µM	3.9 µM
CCC1=C[C@@H]2CN(C1)Cc1c([nH]c3ccccc13)[C@@](C(=O)OC)(c1cc3c(cc1OC)N(C)[C@H]1[C@@](O)(C(=O)OC)[C@H](OC(C)=O)[C@]4(CC)C=CCN5CC[C@]31[C@@H]54)C2	> 34.1 µM	< 0.01 µM	1.86 µM	< 0.01 µM	0.554 µM	15.5 µM	1.01 µM	36.5 µM		2.02 µM	< 0.019 µM	< 0.01 µM	< 0.011 µM	< 0.01 µM	< 0.0471 µM	< 0.01 µM	0.0103 µM	< 0.0302 µM	< 0.01 µM	< 0.01 µM

Source: PubChem BioAssay (NCI)
